The record followed here is patent US5681838A, “Substituted amino compounds, their preparation and their use as inhibitors of thrombocyte-aggregation” (Hoechst Aktiengesellschaft, priority 1993, dated 1997).

Test [1] has as its target T1, fibrinogen receptor (glycoprotein IIb/IIIa) (Homo sapiens, UniProt P05106+P08514).
T1 construct: on intact, gel-filtered human blood platelets; from tissue; host or cells: gel-filtered blood platelets from human donor blood
In words: inhibition of binding of 125I-fibrinogen to its receptor on intact, gel-filtered human blood platelets. To be noted: following stimulation with ADP (10 μM); read-out: Ki, ADP-stimulated (inhibition of the binding of 125I-fibrinogen). The procedure: (§1) The compounds are tested, in particular, for their ability to inhibit blood-platelet aggregation and the adherence of fibrinogen to blood platelets (gel-filtered blood platelets from human donor blood are used which are activated with ADP or thrombin), as well as for their in-vivo ability to inhibit blood-platelet aggregation and thrombosis.
The test is of the ability of the compounds according to the invention to inhibit the binding of fibrinogen to its receptor (glycoprotein IIb/IIIa) on intact, gel-filtered human blood platelets. The value given is the Ki value for inhibition of the binding of ^125 I-fibrinogen following stimulation with ADP (10 μM). (Literature: J. S. Bennett and G. Vilaire, J. Clin. Invest. 64 (1979), 1393-1401; E. Kornecki et al., J. Biol. Chem. 256 (1981), 5695-5701; G. A. Marguerie et al., J. Biol. Chem. 254 (1979), 5357-5363; G. A. Marguerie et al., J. Biol. Chem. 255 (1980), 154-161).

For test [2], the system named is gel-filtered human blood platelets. Nature of the test: inhibition of aggregation of gel-filtered human blood platelets following stimulation with ADP or thrombin. Format: cell-based. To be noted: Platelet. Here is the method: as §1
As a functional test, the ability is measured of the compounds according to the invention to inhibit the aggregation of gel-filtered human blood platelets following stimulation with ADP or thrombin. The value given is the IC50 value of the inhibition. (Literature: G. A. Marguerie et al., J. Biol. Chem. 254 (1979), 5357-5363).

[3] abbreviates: read-out: ADP-stimulated IC50 (inhibition of platelet aggregation).
Setting [4] is: read-out: Thrombin-stimulated IC50 (inhibition of platelet aggregation).

The structures appear in SMILES notation. pIC50, pKi: −log10 of the molar value. Like-named read-outs stand apart in the source and are kept apart here.

T1 sequence (P08514 32-887 limits assumed): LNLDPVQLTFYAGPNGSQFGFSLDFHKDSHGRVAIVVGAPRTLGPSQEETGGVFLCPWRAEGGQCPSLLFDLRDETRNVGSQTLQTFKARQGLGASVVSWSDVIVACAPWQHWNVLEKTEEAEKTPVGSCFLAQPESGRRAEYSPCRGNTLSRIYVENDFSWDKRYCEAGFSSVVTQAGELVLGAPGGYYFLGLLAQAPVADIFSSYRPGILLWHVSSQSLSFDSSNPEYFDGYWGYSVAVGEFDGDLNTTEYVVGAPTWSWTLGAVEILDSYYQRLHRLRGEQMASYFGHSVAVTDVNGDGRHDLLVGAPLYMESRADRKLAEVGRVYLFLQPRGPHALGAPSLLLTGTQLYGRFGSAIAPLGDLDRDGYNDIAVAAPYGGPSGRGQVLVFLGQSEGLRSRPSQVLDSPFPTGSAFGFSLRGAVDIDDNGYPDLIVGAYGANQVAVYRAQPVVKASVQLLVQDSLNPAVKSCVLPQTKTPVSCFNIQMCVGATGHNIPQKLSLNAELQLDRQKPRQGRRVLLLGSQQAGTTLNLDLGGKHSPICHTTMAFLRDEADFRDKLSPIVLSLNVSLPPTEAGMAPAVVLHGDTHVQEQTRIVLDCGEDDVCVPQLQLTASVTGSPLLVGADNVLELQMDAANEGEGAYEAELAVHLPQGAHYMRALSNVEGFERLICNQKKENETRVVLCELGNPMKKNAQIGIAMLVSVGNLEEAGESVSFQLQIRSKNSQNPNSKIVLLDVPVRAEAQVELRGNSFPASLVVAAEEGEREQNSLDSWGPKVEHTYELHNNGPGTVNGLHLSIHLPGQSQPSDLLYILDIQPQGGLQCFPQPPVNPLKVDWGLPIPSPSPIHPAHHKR
T1 sequence (P08514 891-1039 limits assumed): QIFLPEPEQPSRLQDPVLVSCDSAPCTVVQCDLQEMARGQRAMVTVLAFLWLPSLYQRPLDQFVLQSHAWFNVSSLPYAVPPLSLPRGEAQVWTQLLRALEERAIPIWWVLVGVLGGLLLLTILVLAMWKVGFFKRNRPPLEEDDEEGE
T1 sequence (P05106 27-788): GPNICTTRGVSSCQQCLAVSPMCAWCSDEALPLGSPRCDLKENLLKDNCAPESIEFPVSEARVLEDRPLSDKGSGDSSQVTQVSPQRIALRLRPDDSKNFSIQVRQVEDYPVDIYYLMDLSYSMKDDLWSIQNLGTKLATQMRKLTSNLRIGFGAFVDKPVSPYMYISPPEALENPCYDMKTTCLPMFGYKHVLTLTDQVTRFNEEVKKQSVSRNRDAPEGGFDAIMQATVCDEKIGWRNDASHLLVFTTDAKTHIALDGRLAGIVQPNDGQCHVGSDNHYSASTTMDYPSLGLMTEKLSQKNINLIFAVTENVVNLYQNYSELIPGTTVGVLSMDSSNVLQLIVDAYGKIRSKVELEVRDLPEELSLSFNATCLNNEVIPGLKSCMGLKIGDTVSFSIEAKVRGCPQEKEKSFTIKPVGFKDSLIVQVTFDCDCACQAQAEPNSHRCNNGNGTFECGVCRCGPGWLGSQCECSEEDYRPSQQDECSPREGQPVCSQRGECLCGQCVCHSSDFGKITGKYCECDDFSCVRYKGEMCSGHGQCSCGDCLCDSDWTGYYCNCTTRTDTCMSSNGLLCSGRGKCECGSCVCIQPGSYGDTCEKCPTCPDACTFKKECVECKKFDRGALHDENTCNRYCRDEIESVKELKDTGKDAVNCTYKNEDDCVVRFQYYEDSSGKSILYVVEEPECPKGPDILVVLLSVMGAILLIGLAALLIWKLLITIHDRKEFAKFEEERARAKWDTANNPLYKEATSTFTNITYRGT

Take `N=C(N)c1ccc(C=CC(=O)NCCCN(CC(=O)O)C(=O)NC(C(=O)O)c2ccccc2)cc1` (centres unmarked) [Example 1, (1-(3-(3-(4-(Aminoiminomethyl)phenyl)acryloylamino)propyl)-3-(hydroxycarbonylphenylmethyl)ureido)acetic acid acetate]: the pKi in test [1] was 6.38. Moreover, the pIC50 in test [2] (setting [3]) was 5.82; in test [2] (setting [4]), 6.00.
As for `N=C(N)c1ccc(CC2NC(=O)N(CCN(CC(=O)O)C(=O)OCC3c4ccccc4-c4ccccc43)C2=O)cc1` (centres unmarked) [Example 2, (2-(4-(4-(Aminoiminomethyl)benzyl)-2,5-dioxoimidazolidin-1-yl)ethyl)-(9-fluorenylmethoxycarbonyl)aminoacetic acid], the negative logarithm of the IC50 (pIC50) in test [2] (setting [3]) and in test [2] (setting [4]) was 4.70 throughout.

As a reminder, the pKi is the Ki on a negative log10 scale, so that one unit is a factor of ten. A word on the pIC50: it is the negative decadic logarithm of the IC50, by convention in mol/L.
